In patent publication US20180024136A1, “Development of ABCG2-Sensitive Fluorescent Probe For Isolation of ABCG2low Neural Stem/Progenitor Cells” (National University of Singapore, priority 2015, published 2018):

Experiments:
[1] = test system: E14.5 mouse embryonic brain cells; assay: Neurosphere formation of FACS-sorted E14.5 embryonic brain cells; type: cell-based; settings: 6 days culture, >50 μm diameter, 10,000 cells/well
From the text: For the counting of the number of neurosphere, we selected 6 days-cultured neurospheres having larger than 50 μm of diameter. The whole neurospheres in a well were counted to reduce random counting error using EVOS microscope (Advanced Microscopy Group).
E14.5 embryos were obtained from C57BL/6 pregnant mice. Cerebral cortices were removed and triturated into single-cell suspension by digestion of dissected tissues with StemPro® Accutase® (Invitrogen) and filtered through 40 μm nylon mesh. The brain cells were collected by centrifugation with 400×g for 3 min and resuspended in neurosphere growth medium [DMEM/F12 supplemented with 2% B27 (without vitamin A), bFGF (10 ng/ml), EGF (20 ng/ml), 1× anti-anti]. The cells were stained for 1 hour with 1 μM of CDg13 in neurosphere growth medium. After collecting cells by centrifuge as described above, the cells were resuspended to BSA-free DMEM (phenol red free) and added propidium iodide (PI) at a concentration of 1 μg/ml to distinguish dead cells. FACS sorting was performed using the MoFlo XDP cell sorter (Beckman Coulter). Cells were sorted by pre-gating with FSC/SSC properties to exclude small debris having FSC^low/SSC^low. To isolate CDg13 stained cell population, we used a 488 nm laser excitation and a 529/28 BP filter to collect emitted light. Dead cells stained by PI were detected with a 488 nm excitation and a 620/29 BP emission. […]

[2] = test system: neurospheres from E14.5 mouse embryonic brain; assay: Neuronal differentiation of primary neurospheres (Tuj1/GFAP immunostaining); type: cell-based; settings: neurospheres from sorted cells, 150 per group
Experimental: All animal experiments were approved by the Biomedical Research Council Singapore, Institutional Animal Care and Use Committee (IACUC). E14.5 embryos were obtained from C57BL/6 pregnant mice. Cerebral cortices were removed and triturated into single-cell suspension by digestion of dissected tissues with StemPro® Accutase® (Invitrogen) and filtered through 40 μm nylon mesh. Dissociated cells were seeded at a density of 1×10^3 cells/cm^2 in neurosphere growth medium [DMEM/F12 supplemented with 2% B27 (without vitamin A), bFGF (10 ng/ml), EGF (20 ng/ml), 1× anti-anti]. All the cell culture components were from Invitrogen. Passaging of neurosphere was conducted through single cell dissociation of neurospheres as described above. […]
More than a hundred of differentiated neurospheres were fixed in paraformaldehyde (4%, w/v) for 15 min, permeabilized in Triton X-100 (0.1% v/v), and blocked with BSA (3% w/v) for 1 hour. […] The existence of clear Tuj1 positive cells inside a differentiated neurosphere were counted as neuron-contained neurospheres. Neuronal clumps were counted if more than 10 of nuclei of neuronal cells are packaged each other. Neurite outgrowth of Tuj1 positive cells were measured using neurite outgrowth module parameter of MetaXpress ([…]) with maximum width of 1 μm. The phases with high neurite outgrowth were selected and counted at least 300 cells.

[3] = target: T1, ABCG2 (Homo sapiens, UniProt Q9UNQ0); assay: Probe response to Ko143 in RPMI-8226 cells; type: cell-based; design: pre-treatment of RPMI-8226 cells with or without Ko143; endogenous in cells; host or cells: RPMI-8226; settings: RPMI-8226, Ko143 pre-treatment, 1 μM probe
T1 sequence (Q9UNQ0 1-655): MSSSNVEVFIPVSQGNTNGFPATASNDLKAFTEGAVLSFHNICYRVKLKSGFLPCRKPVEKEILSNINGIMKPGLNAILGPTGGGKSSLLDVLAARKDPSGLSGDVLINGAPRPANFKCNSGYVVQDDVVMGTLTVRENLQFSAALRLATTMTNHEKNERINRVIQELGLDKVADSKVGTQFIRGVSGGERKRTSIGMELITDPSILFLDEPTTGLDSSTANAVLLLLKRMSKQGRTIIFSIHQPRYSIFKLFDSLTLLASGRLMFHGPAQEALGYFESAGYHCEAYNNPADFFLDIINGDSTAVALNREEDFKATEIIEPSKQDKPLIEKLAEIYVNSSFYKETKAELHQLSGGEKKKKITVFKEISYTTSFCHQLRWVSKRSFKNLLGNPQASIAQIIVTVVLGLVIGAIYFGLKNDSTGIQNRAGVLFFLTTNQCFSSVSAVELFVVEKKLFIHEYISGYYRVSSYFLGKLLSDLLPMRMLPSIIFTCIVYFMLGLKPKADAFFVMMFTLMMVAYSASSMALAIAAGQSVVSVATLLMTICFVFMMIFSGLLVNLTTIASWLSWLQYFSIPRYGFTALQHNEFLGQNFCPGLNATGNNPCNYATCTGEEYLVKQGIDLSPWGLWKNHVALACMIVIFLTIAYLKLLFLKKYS
Experimental: FIGS. 11A-11B show CDg13 has high sensitivity to ABCG2: (A) and (B) pre-treatment of RPMI-8226 cells with or without Ko143 were conducted for 30 minutes prior to staining with 1 μM of CDg13, pheophorbide A (PhA) or CDr3, fold change of fluorescence intensity from 3-6 independent experiments (A) (values are means±SEM, *, p<0.05; **, p<0.01), and representative fluorescence histogram of CDg13 and PhA (B) (unstained, 0, 100, 1,000 and 5,000 nM of Ko143 treated group is presented).

[4] = test system: human KB3-1 cells; assay: MTS viability assay on KB3-1 cells; type: cell-based; settings: 48 h
[5] = target: ABCB1 (Homo sapiens, UniProt P08183); assay: in vitro
Chain of ABCB1 (P08183 whole entry): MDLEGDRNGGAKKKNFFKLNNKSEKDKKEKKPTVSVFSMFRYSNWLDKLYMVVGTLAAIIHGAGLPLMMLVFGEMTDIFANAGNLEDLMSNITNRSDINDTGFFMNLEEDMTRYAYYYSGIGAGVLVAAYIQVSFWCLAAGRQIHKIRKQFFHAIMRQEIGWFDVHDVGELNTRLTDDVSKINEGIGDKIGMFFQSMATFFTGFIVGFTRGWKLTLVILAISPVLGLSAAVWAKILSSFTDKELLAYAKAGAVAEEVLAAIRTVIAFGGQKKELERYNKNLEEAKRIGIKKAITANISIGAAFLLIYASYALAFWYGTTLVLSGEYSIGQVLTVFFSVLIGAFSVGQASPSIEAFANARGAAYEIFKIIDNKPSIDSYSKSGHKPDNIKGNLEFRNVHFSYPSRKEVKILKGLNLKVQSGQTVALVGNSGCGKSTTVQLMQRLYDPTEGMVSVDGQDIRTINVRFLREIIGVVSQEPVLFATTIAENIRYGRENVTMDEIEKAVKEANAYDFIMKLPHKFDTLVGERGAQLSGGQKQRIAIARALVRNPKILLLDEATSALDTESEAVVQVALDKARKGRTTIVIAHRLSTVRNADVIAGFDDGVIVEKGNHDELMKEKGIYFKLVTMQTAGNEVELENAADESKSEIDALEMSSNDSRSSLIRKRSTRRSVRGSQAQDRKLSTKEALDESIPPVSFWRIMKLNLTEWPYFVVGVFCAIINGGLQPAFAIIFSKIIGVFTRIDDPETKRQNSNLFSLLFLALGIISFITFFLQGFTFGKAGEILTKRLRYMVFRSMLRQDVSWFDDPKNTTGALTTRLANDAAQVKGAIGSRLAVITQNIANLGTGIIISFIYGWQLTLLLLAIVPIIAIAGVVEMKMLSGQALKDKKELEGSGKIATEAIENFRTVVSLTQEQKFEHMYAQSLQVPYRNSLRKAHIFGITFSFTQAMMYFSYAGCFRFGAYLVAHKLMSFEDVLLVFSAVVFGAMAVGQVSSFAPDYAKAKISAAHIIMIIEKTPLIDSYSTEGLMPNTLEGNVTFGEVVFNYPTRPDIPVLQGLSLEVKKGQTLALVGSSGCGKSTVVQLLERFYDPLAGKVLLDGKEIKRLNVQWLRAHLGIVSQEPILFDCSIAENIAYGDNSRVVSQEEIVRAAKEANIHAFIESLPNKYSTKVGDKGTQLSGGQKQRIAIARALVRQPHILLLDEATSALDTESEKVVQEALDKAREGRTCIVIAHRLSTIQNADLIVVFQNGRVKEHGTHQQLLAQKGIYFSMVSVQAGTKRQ

Compound: CCCCCCCCCN(CCCCCCCCC)C(=O)c1ccc(-c2c3cc(Cl)c(=O)cc-3oc3cc(O)c(Cl)cc23)cc1 [CDg13]
- number of neurospheres of CDg13^bright cells compared to CD133^high cells [1]: 1.5 fold
- number of neurospheres of CDg13^bright cells compared to unsorted brain cells [1]: 5.9 fold
- neurospheres differentiated to neuron in the whole spheres [2]: 95.3%
- sensitivity of response to ABCG2 [3]: higher sensitivity and produced more consistent data than PhA
- toxicity ([4]; 1 to 10 μM): No toxicity was observed
- concentration at which cells started dying [4]: 50 µM
- fold induction at 1 h, 10 µM [5]: 1.5
